Our source for the IC50 values is US11530210B2, “Substituted heteroaromatic pyrazolo-pyridines and their use as GLUN2B receptor modulators” (JANSSEN PHARMACEUTICA NV, priority 2019, dated 2022).

Usually IC50 stands for the concentration needed to halve the response being measured.

Counter-ions that a name gives are not always drawn.

The target of the experiment is T1, human GluN1/GluN2B NMDA receptors (Homo sapiens, UniProt Q13224).
T1 construct: expressed in transfected cells
T1 sequence (Q13224 27-1484, other chains not shown): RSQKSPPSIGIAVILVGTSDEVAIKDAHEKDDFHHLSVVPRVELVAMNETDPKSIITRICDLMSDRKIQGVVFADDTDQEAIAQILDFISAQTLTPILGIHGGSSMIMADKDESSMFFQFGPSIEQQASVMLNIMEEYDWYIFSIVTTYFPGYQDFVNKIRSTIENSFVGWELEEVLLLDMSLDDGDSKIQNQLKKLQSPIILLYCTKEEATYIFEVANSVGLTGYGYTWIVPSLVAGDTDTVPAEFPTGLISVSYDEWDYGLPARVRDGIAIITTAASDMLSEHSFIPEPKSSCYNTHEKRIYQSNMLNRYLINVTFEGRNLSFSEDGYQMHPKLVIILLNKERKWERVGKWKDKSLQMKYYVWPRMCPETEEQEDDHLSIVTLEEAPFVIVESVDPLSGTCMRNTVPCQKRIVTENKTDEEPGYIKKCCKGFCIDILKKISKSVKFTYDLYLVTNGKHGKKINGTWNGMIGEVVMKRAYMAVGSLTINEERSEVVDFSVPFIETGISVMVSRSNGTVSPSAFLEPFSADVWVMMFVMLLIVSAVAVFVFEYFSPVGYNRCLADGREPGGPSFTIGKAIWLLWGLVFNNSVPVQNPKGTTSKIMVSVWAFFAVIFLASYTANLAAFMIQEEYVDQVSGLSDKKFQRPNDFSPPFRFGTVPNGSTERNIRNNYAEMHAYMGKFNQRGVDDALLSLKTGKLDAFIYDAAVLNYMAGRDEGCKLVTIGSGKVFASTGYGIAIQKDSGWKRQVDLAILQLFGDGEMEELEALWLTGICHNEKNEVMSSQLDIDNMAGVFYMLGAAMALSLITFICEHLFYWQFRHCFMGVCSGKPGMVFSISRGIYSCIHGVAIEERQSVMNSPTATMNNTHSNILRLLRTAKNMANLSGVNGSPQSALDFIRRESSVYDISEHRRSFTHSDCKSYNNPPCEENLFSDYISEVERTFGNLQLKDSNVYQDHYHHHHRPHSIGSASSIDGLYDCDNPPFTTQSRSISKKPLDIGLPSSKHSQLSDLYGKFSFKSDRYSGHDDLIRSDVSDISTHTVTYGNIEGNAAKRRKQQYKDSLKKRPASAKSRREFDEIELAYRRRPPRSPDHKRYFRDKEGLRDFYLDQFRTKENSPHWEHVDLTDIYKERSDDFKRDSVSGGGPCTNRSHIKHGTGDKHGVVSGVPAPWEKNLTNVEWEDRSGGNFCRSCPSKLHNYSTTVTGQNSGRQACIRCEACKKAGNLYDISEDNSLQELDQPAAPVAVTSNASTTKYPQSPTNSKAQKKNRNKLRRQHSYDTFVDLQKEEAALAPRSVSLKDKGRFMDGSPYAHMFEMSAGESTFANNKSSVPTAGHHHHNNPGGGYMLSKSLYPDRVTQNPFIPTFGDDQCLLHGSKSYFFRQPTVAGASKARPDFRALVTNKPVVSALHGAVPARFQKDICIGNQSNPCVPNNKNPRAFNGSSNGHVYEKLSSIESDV
Put plainly: Calcium flux (FLIPR) assay on cloned human NR1/GluN2B ion channels expressed in mammalian cells (standard and HTS variants). The conditions noted are these: cells expressing human GluN1/GluN2B, glutamate and glycine co-agonists. The format is cell-based. Summed up:
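Tet-On-induced stable cell line loaded with Calcium 5 dye; compounds applied 5 min (agonist check), then glutamate at ~EC40 plus 10 μM glycine for 5 min. Buffer pH 7.4 with 0.5 mM MgCl2 in dye loading (standard) or 1.5 mM (HTS). FLIPR fluorescence normalized to control wells; (+)MK-801 as antagonist control.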
(Calcium flux is commonly read through the fluorescence of an indicator in the cells.)
Take `FC(F)(F)c1cccc(-c2cnc3cnn(Cc4ncno4)c3c2)c1` [Example 87, 5-[[6-[3-(Trifluoromethyl)phenyl]pyrazolo[4,3-b]pyridin-1-yl]methyl]-1,2,4-oxadiazole]: the IC50 worked out at 383 nM.

For `Fc1ccc(-c2cnc3cnn(Cc4cncc(C(F)(F)F)c4)c3c2)cc1C(F)F` [Example 211, 6-[3-(Difluoromethyl)-4-fluoro-phenyl]-1-[[5-(trifluoromethyl)-3-pyridyl]methyl]pyrazolo[4,3-b]pyridine], the IC50 amounted to 47 nM.

For `Fc1cncc(Cn2ncc3ncc(-c4ccccc4F)cc32)c1` [Example 153, 6-(2-Fluorophenyl)-1-[(5-fluoro-3-pyridyl)methyl]pyrazolo[4,3-b]pyridine], the IC50 came out at 720 nM.

As to `Cc1cc(Cn2ncc3ncc(-c4cccc(C(F)(F)F)c4)cc32)n(C)n1` [Example 37, 1-[(2,5-Dimethylpyrazol-3-yl)methyl]-6-[3-(trifluoromethyl)phenyl]pyrazolo[4,3-b]pyridine], the IC50 is 3950 nM.

`Cc1nnc(Cn2ncc3ncc(-c4ccc(Cl)c(OC(F)F)c4)cc32)s1` [Example 135, 2-[[6-[4-Chloro-3-(difluoromethoxy)phenyl]pyrazolo[4,3-b]pyridin-1-yl]methyl]-5-methyl-1,3,4-thiadiazole]: the IC50 came to 133 nM.

In the case of `FC(F)(F)c1cccc(-c2cnc3cnn(Cc4cncnc4)c3c2)c1` [Example 276, 1-(Pyrimidin-5-ylmethyl)-6-[3-(trifluoromethyl)phenyl]pyrazolo[4,3-b]pyridine], the IC50 amounted to 145 nM.

On to `FC(F)(F)c1cccc(-c2cnc3cnn(Cc4cnccc4C(F)(F)F)c3c2)c1` [Example 176, 6-[3-(Trifluoromethyl)phenyl]-1-[[4-(trifluoromethyl)-3-pyridyl]methyl]pyrazolo[4,3-b]pyridine], for which the IC50 was 1300 nM.

As for `COc1cncc(Cn2ncc3ncc(-c4cccc(C(F)(F)F)c4)cc32)c1` [Example 173, 1-[(5-Methoxy-3-pyridyl)methyl]-6-[3-(trifluoromethyl)phenyl]pyrazolo[4,3-b]pyridine], the IC50 turned out to be 210 nM.

On to `Fc1ccc(-c2cnc3cnn(Cc4nnc(C5CC5)s4)c3c2)cc1C(F)F` [Example 130, 2-Cyclopropyl-5-[[6-[3-(difluoromethyl)-4-fluoro-phenyl]pyrazolo[4,3-b]pyridin-1-yl]methyl]-1,3,4-thiadiazole], for which the IC50 came to 123 nM.

Take `Cc1cc(Cn2ncc3ncc(-c4ccc(F)cc4)cc32)no1` [Example 43, 3-[[6-(4-Fluorophenyl)pyrazolo[4,3-b]pyridin-1-yl]methyl]-5-methyl-isoxazole]: the IC50 was 139 nM.

In the case of `CC(F)(F)c1cc(-c2cnc3cnn(Cc4cncnc4)c3c2)ccc1F` [Example 277, 6-[3-(1,1-Difluoroethyl)-4-fluoro-phenyl]-1-(pyrimidin-5-ylmethyl)pyrazolo[4,3-b]pyridine], the IC50 stood at 65 nM.

`FC(F)(F)c1cccc(-c2cnc3cnn(Cc4nnco4)c3c2)c1` [Example 7, 2-[[6-[3-(Trifluoromethyl)phenyl]pyrazolo[4,3-b]pyridin-1-yl]methyl]-1,3,4-oxadiazole]: the IC50 came to 748 nM.

As to `CNc1nnc(Cn2ncc3ncc(-c4ccc(F)c(OC(F)F)c4)cc32)s1` [Example 15, 5-[[6-[3-(Difluoromethoxy)-4-fluoro-phenyl]pyrazolo[4,3-b]pyridin-1-yl]methyl]-N-methyl-1,3,4-thiadiazol-2-amine], the IC50 was above 2990 nM.

As for `Cc1cccc(-c2cnc3cnn(Cc4cccnn4)c3c2)c1` [Example 255, 6-(m-Tolyl)-1-(pyridazin-3-ylmethyl)pyrazolo[4,3-b]pyridine], the IC50 was found to be 329 nM.

For the compound `Cc1nnc(Cn2ncc3ncc(-c4ccc(F)c(C(F)F)c4)cc32)n1C` [Example 75, 6-[3-(Difluoromethyl)-4-fluoro-phenyl]-1-[(4,5-dimethyl-1,2,4-triazol-3-yl)methyl]pyrazolo[4,3-b]pyridine], the IC50 was found to be 139 nM.

For `CC(F)(F)c1cccc(-c2cnc3cnn(Cc4cncc(F)c4)c3c2)c1` [Example 161, 6-[3-(1,1-Difluoroethyl)phenyl]-1-[(5-fluoro-3-pyridyl)methyl]pyrazolo[4,3-b]pyridine], the IC50 is 40 nM.

Take `Cc1cc(Cn2ncc3ncc(-c4ccc(Cl)c(OC(F)F)c4)cc32)no1` [Example 62, 3-[[6-[4-Chloro-3-(difluoromethoxy)phenyl]pyrazolo[4,3-b]pyridin-1-yl]methyl]-5-methyl-isoxazole]: the IC50 is 159 nM.

Turning to `COc1ncccc1Cn1ncc2ncc(-c3cccc(C(F)(F)F)c3)cc21` [Example 172, 1-[(2-Methoxy-3-pyridyl)methyl]-6-[3-(trifluoromethyl)phenyl]pyrazolo[4,3-b]pyridine trifluoroacetate salt], the IC50 is 7780 nM.

With `Cc1ccncc1Cn1ncc2ncc(-c3cccc(C(F)(F)F)c3)cc21` [Example 168, 1-[(4-Methyl-3-pyridyl)methyl]-6-[3-(trifluoromethyl)phenyl]pyrazolo[4,3-b]pyridine trifluoroacetate salt], the IC50 turned out to be 161 nM.

On to `Cc1cc(-c2cnc3cnn(Cc4cccnn4)c3c2)ccc1F` [Example 259, 6-(4-Fluoro-3-methyl-phenyl)-1-(pyridazin-3-ylmethyl)pyrazolo[4,3-b]pyridine trifluoroacetate salt], for which the IC50 was 30 nM.

With `Cc1nc(Cn2ncc3ncc(-c4ccc(F)c(C(F)F)c4)cc32)co1` [Example 55, 4-[[6-[3-(Difluoromethyl)-4-fluoro-phenyl]pyrazolo[4,3-b]pyridin-1-yl]methyl]-2-methyl-oxazole], the IC50 was found to be 285 nM.

With `N#Cc1cncc(Cn2ncc3ncc(-c4ccc(C(F)F)s4)cc32)c1` [Example 142, 5-[[6-[5-(Difluoromethyl)-2-thienyl]pyrazolo[4,3-b]pyridin-1-yl]methyl]pyridine-3-carbonitrile], the IC50 was found to be 219 nM.

`CC(F)(F)c1cc(-c2cnc3cnn(Cc4cncc(C#N)c4)c3c2)ccc1F` [Example 219, 5-[[6-[3-(1,1-Difluoroethyl)-4-fluoro-phenyl]pyrazolo[4,3-b]pyridin-1-yl]methyl]pyridine-3-carbonitrile]: the IC50 was 158 nM.

On to `Nc1nnc(Cn2ncc3ncc(-c4ccc(F)c(C(F)F)c4)cc32)s1` [Example 16, 5-[[6-[3-(difluoromethyl)-4-fluoro-phenyl]pyrazolo[4,3-b]pyridin-1-yl]methyl]-1,3,4-thiadiazol-2-amine], for which the IC50 worked out at 1050 nM.

For `Cc1c(F)ccc(-c2cnc3cnn(Cc4cccnc4)c3c2)c1F` [Example 245, 6-(2,4-Difluoro-3-methyl-phenyl)-1-(3-pyridylmethyl)pyrazolo[4,3-b]pyridine trifluoroacetate salt], the IC50 came out at 33 nM.

For the compound `N#Cc1ccc(Cn2ncc3ncc(-c4ccc(F)c(C(F)F)c4)cc32)s1` [Example 34, 5-((6-(3-(Difluoromethyl)-4-fluorophenyl)-1H-pyrazolo[4,3-b]pyridin-1-yl)methyl)thiophene-2-carbonitrile], the IC50 worked out at 353 nM.

As for `CC(F)(F)c1cccc(-c2cnc3cnn(Cc4cccnn4)c3c2)c1` [Example 257, 6-[3-(1,1-Difluoroethyl)phenyl]-1-(pyridazin-3-ylmethyl)pyrazolo[4,3-b]pyridine], the IC50 was 110 nM.

Consider `Cc1c(F)ccc(-c2cnc3cnn(Cc4nnc(C(F)(F)F)o4)c3c2)c1F` [Example 119, 2-[[6-(2,4-Difluoro-3-methyl-phenyl)pyrazolo[4,3-b]pyridin-1-yl]methyl]-5-(trifluoromethyl)-1,3,4-oxadiazole], for which the IC50 is 245 nM.

Turning to `COc1nnc(Cn2ncc3ncc(-c4ccc(F)c(C(F)F)c4)cc32)s1` [Example 127, 2-[[6-[3-(difluoromethyl)-4-fluoro-phenyl]pyrazolo[4,3-b]pyridin-1-yl]methyl]-5-methoxy-1,3,4-thiadiazole], the IC50 amounted to 850 nM.

`Cc1nonc1Cn1ncc2ncc(-c3ccc(F)c(C(F)F)c3)cc21` [Example 98, 3-[[6-[3-(Difluoromethyl)-4-fluoro-phenyl]pyrazolo[4,3-b]pyridin-1-yl]methyl]-4-methyl-1,2,5-oxadiazole]: the IC50 is 34 nM.

For `Cc1cc(Cn2ncc3ncc(-c4ccc(F)c(OC(F)F)c4)cc32)no1` [Example 59, 3-[[6-[3-(Difluoromethoxy)-4-fluoro-phenyl]pyrazolo[4,3-b]pyridin-1-yl]methyl]-5-methyl-isoxazole], the 50% inhibitory concentration (IC50) was found to be 61 nM.

`Cc1csc(Cn2ncc3ncc(-c4ccc(F)c(C(F)F)c4)cc32)n1` [Example 66, 2-[[6-[3-(Difluoromethyl)-4-fluoro-phenyl]pyrazolo[4,3-b]pyridin-1-yl]methyl]-4-methyl-thiazole]: the IC50 was determined as 410 nM.

Take `COc1nccc(Cn2ncc3ncc(-c4ccc(F)c(C(F)F)c4)cc32)n1` [Example 290, 6-[3-(Difluoromethyl)-4-fluoro-phenyl]-1-[(2-methoxypyrimidin-4-yl)methyl]pyrazolo[4,3-b]pyridine]: the IC50 turned out to be 320 nM.

In the case of `Fc1cncc(Cn2ncc3ncc(-c4ccc(Cl)c(OC(F)F)c4)cc32)c1` [Example 240, 6-[4-Chloro-3-(difluoromethoxy)phenyl]-1-[(5-fluoro-3-pyridyl)methyl]pyrazolo[4,3-b]pyridine], the IC50 was determined as 166 nM.

With `Cc1cncc(Cn2ncc3ncc(-c4cccc(C(C)(F)F)c4)cc32)c1` [Example 160, 6-[3-(1,1-Difluoroethyl)phenyl]-1-[(5-methyl-3-pyridyl)methyl]pyrazolo[4,3-b]pyridine], the IC50 is 112 nM.

For `N#Cc1cc(F)cc(Cn2ncc3ncc(-c4ccc(F)c(C(F)F)c4)cc32)c1` [Example 28, 3-[[6-[3-(Difluoromethyl)-4-fluoro-phenyl]pyrazolo[4,3-b]pyridin-1-yl]methyl]-5-fluoro-benzonitrile], the IC50 amounted to 125 nM.

As for `FC(F)c1cccc(-c2cnc3cnn(Cc4cncc(Cl)c4)c3c2)c1` [Example 158, 1-[(5-Chloro-3-pyridyl)methyl]-6-[3-(difluoromethyl)phenyl]pyrazolo[4,3-b]pyridine], the IC50 turned out to be 14 nM.
